Measured values as given in patent US8445510B2, “Fused bicyclic kinase inhibitors” (OSI Pharmaceuticals, LLC, priority 2011, dated 2013).

Tests used:
Format in all cases: cell-based
MKN45 cells = experiment: MKN45 cell proliferation assay (CellTiter-Glo); conditions: Homo sapiens, MKN-45, 72 h; MKN45 cell line; 3 days incubation; at least duplicate experiments; read-out: Prolif. IC50
Method: The effect of inhibitors on the proliferation of MKN45 cells was determined using the following protocol. MKN45 cells were plated in Corning 3917 96-well white tissue culture treated plates in growth medium (RPMI, 10% FCS) at a density of 5000 cells/well in a total volume of 135 μL and incubated at 37° C., 5% CO2, 95% humidity overnight. The following day, one-tenth volume of a 10× concentration of compounds was added to the wells in an 8-point dilution series. The dilution series was composed of an initial 1:5 dilution of a 10 mM stock of compound in DMSO, followed by serial 1:4 dilutions in DMSO, then a 1:20 dilution in growth medium prior to the 1:10 dilution into the cell plate. […] The typical dilution range is 10 μM to 0.6 nM. Once the compound was added to the cells, plates were incubated for 3 days at 37° C., 5% CO2 at 95% humidity. On the third day, after allowing all cells and reagents to come to room temperature, 25 μL of CellTiter-Glo reagent (Promega #G7573) was added to the wells. Plates were shaken on a platform for 10 minutes prior to reading luminescence for 0.1 seconds. The signal of the control wells was taken as 100% growth and growth inhibition was expressed as percent of control. IC50 values were determined from the percent of control data using a standard four-parameter model.
(§1) The IC50 values of exemplary compounds of the present invention determined in a cell proliferation assay using the MKN45 cell line according to the procedures described herein in at least duplicate experiments are abbreviated as follows and are shown in Table 2: A, IC50≦0.05 μM; B, 0.05 μM<IC50≦0.2 μM; C, 0.2 μM<IC50≦1 μM; D, IC50>1 μM; ND, not determined. The Example # of Table 2 corresponds to the compound example number as illustrated in the Examples section.
Treatment of this cell line with a selective c-MET inhibitor led to induction of apoptosis and inhibition of proliferation, whereas non-MET-amplified cell lines were not affected [Smolen et al., Proc. Natl. Acad. Sci. USA, 103(7):2316-2321 (2006)]. This cell line is thus “driven” by c-MET, and antiproliferative effects correlate very well with the inhibition of c-MET phosphorylation so that the cell proliferation IC50, values can be used as surrogate for the c-MET cell mechanistic IC50, values. Under the assay conditions described herein, the IC50 values correlate nearly 1:1.

Karpas-299 cells = experiment: Karpas-299 cell proliferation assay (CellTiter-Glo); conditions: Homo sapiens, 72 h; Karpas-299 cell line (NPM-ALK); 3 days incubation; at least duplicate experiments; read-out: Prolif. IC50
Method: The effect of inhibitors on the proliferation of Karpas-299 cells (DSMZ no. ACC 31) was determined using the following protocol. Karpas-299 cells were plated in 96-well white tissue culture treated plates (Corning 3917) in growth medium (RPMI, 10% FCS) at a density of 5000 cells/well in a total volume of 135 μL and incubated at 37° C., 5% CO2, 95% humidity overnight. The following day, one-tenth volume of a 10× concentration of compounds was added to the wells in an 8-point dilution series. Compounds were serially diluted (1:4) in DMSO from a 10 mM stock solution prior to dilution in growth media to the 10× working concentrations (5% DMSO). Final concentration of DMSO in compound-treated wells was 0.5%. Control wells containing growth media or growth media/0.5% DMSO were included in all test plates. […] Once the compounds were added to the cells, plates were incubated for 3 days at 37° C., 5% CO2 at 95% humidity. After 72 hours, all cells and reagents were equilibrated to room temperature and 15 μL of CellTiter-Glo reagent (Promega # G7573) was added to each well. Plates were shaken on a platform for 10 minutes at room temperature prior to reading luminescence. The value of the signal of the control wells was set as 100% growth and growth inhibition was expressed as percent of control. IC50 values were determined from the percent of control data using a standard four-parameter curve fit equation.
as §1, with “the Karpas-299” for “the MKN45”, “Table 5:” for “Table 2:”, “Table 5” for “Table 2”
The Karpas-299 cell line has a t(2; 5) chromosomal translocation and expresses the NPM-ALK fusion protein, resulting in constitutively active ALK. […] Ther. 6(12):3314-22 (2007)]. With this “ALK-driven” cell line, the cell proliferation IC50 values can thus be used as surrogate for the p-ALK cell mechanistic IC50 values.

RON = molecular target: T1, RON (Homo sapiens, UniProt Q04912); experiment: sfRON cell mechanistic assay (HeLa), phosphorylated RON ELISA; conditions: HeLa cells transfected with sfRON; inhibition of phosphorylated RON; four hours incubation; at least duplicate experiments; read-out: sfRON mech IC50
T1 sequence (Q04912 913-1400): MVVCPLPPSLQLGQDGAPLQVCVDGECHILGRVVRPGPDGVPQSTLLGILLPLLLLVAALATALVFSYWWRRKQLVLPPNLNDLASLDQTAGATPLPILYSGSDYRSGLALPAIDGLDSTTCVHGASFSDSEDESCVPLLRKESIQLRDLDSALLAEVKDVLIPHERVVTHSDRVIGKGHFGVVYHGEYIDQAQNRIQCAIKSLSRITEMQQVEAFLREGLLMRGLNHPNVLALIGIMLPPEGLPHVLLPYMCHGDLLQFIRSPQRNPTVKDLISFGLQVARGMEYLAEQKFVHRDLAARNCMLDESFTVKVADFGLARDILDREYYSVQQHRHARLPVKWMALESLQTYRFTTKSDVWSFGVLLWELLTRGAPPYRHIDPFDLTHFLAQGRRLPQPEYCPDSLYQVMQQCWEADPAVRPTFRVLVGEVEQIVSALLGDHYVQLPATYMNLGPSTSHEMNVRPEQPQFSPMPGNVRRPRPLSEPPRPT
Method: The cellular activity of the compounds of the present invention against RON may be determined by the following procedure. HeLa cells were plated in Falcon 3072 96-well plates in growth media (DMEM, 10% FBS, 1% L-glutamine) at a density of 10000 cells/well and incubated at 37° C., 5% CO2 overnight. The following day, cells were transfected with 0.2 μg sfRON-pcDNA plasmid DNA with 0.5 μL Lipofectamine-2000 per well in the presence of 50 μL OPTI-MEM, incubated at 37° C., 5% CO2 overnight. Costar 3915 96-well assay plates were coated with rabbit Anti-RON antibody at 2.0 μg/mL, sealed, and incubated overnight at 4° C. On the third day, coated plates were washed with PBS and blocked with 3% BSA. For the sfRON transfected cells, one-tenth volume of a 10× concentration of compounds was added to the wells in a 6-point dilution series. The dilution series was composed of an initial 1:5 dilution of a 10 mM DMSO stock solution of compound in DMSO, followed by a 1:10 dilution in growth media, for a final DMSO concentration on cells of 0.5%. Control wells were treated with 0.5% DMSO. The typical range of dilution was 10 μM to 3 nM. Once compound was added to the cells, plates were incubated for four hours at 37° C., 5% CO2. Plates were then washed in PBS, and lysed in triton-based lysis buffer. Lysates were transferred to the blocked capture plates. The phosphorylated RON levels were measured by incubating with a Goat polyclonal antibody against phosphorylated RON ([pYpY1238/1239]) followed by an anti-Goat antibody conjugated to HRP. Signal was measured on a Wallac Victor plate reader with luminance. The DMSO signal of the control wells was defined as 100% and the percent of inhibition of phosphorylated RON was expressed as percent of control. IC50 values were determined from the percent of control data using a standard four-parameter model.
The IC50 values of exemplary compounds of the present invention determined in a sfRON cell mechanistic assay using the HeLa cell line according to the procedures described herein in at least duplicate experiments are abbreviated as follows and are shown in Table 3: A, IC50≦0.2 μM; B, 0.2 μM<IC50≦1.0 μM; C, IC50>1 μM; ND, not determined. The Example # of Table 3 corresponds to the compound example number as illustrated in the Examples section.

SMILES | IC50 (MKN45 cells) | IC50 (Karpas-299 cells) | IC50 (RON)
COc1ccc(F)c(Cl)c1[C@@H](C)c1c[nH]c2ncc(-c3cnn([C@H]4CC[C@H](O)CC4)c3C(F)(F)F)cc12 [Example 40, trans-4-[4-{3-[(1S)-1-(2-Chloro-3-fluoro-6-methoxyphenyl)ethyl]-1H-pyrrolo[2,3-b]pyridin-5-yl}-5-(trifluoromethyl)-1H-pyrazol-1-yl]cyclohexanol] | 50 to 200 nM | > 1000 nM | > 1000 nM
COc1ccc(F)c(Cl)c1[C@@H](C)c1c[nH]c2ncc(-c3cnn(C[C@H](O)CO)c3C(F)(F)F)cc12 [Example 36, (2S)-3-[4-{3-[(1S)-1-(2-Chloro-3-fluoro-6-methoxyphenyl)ethyl]-1H-pyrrolo[2,3-b]pyridin-5-yl}-5-(trifluoromethyl)-1H-pyrazol-1-yl]propane-1,2-diol] | 50 to 200 nM | 200 to 1000 nM | 
[2H]c1[nH]c2ncc(-c3cnn([C@H]4CC[C@H](O)CC4)c3C)cc2c1[C@@H](C)c1c(OC(F)F)ccc(F)c1Cl [Example 95, trans-4-{-4-[3-{(1R)-1-[2-Chloro-6-(difluoromethoxy)-3-fluorophenyl]-ethyl}(2-^2H)-1H-pyrrolo[2,3-b]pyridin-5-yl]-5-methyl-1H-pyrazol-1-yl}cyclohexanol] | 200 to 1000 nM | 200 to 1000 nM | 
Cc1c(-c2cnc3[nH]cc([C@@H](CF)c4c(Cl)ccc(F)c4Cl)c3c2)cnn1[C@H]1CC[C@H](O)CC1 [Example 117, trans-4-(4-{3-[(1R)-1-(2,6-dichloro-3-fluorophenyl)-2-fluoroethyl]-1H-pyrrolo[2,3-b]pyridin-5-yl}-5-methyl-1H-pyrazol-1-yl)cyclohexanol] | > 1000 nM | > 1000 nM | 
COc1ccc(F)c(Cl)c1[C@@H](C)c1c[nH]c2ncc(-c3cn(C[C@H](O)CO)nc3C(F)(F)F)cc12 [Example 37, (2S)-3-[4-{3-[(1S)-1-(2-Chloro-3-fluoro-6-methoxyphenyl)ethyl]-1H-pyrrolo[2,3-b]pyridin-5-yl}-3-(trifluoromethyl)-1H-pyrazol-1-yl]propane-1,2-diol] | 200 to 1000 nM | 200 to 1000 nM | 
CCOC(=O)[C@H]1CC[C@H](n2nc(C)c(-c3cnc4[nH]cc([C@H](C)c5c(OC)ccc(F)c5Cl)c4c3)c2C)CC1 [Example 26, Ethyl trans-4-(4-{3-[(1S)-1-(2-chloro-3-fluoro-6-methoxyphenyl)ethyl]-1H-pyrrolo[2,3-b]pyridin-5-yl}-3,5-dimethyl-1H-pyrazol-1-yl)cyclohexanecarboxylate] |  | ≤ 50 nM | 
COc1ccc(F)c(Cl)c1[C@@H](C)c1c[nH]c2ncc(-c3c(C)nn([C@H]4CC[C@H](C(=O)O)CC4)c3C)cc12 [Example 25, trans-4-(4-{3-[(1S)-1-(2-Chloro-3-fluoro-6-methoxyphenyl)ethyl]-1H-pyrrolo[2,3-b]pyridin-5-yl}-3,5-dimethyl-1H-pyrazol-1-yl)cyclohexanecarboxylic acid] |  | ≤ 50 nM | 

The next lines start with the values.

IC50 (MKN45 cells) | IC50 (Karpas-299 cells) | IC50 (RON) | SMILES
≤ 50 nM | ≤ 50 nM | ≤ 200 nM | [2H]C([2H])([2H])[C@H](c1c(OC(F)F)ccc(F)c1Cl)c1c[nH]c2ncc(-c3cnn([C@H]4CC[C@H](O)CC4)c3C)cc12 [Example 113, trans-4-(4-{3-[(1S)-1-[2-Chloro-6-(difluoromethoxy)-3-fluorophenyl](2,2,2-^2H3)ethyl]-1H-pyrrolo[2,3-b]pyridin-5-yl}-5-methyl-1H-pyrazol-1-yl)cyclohexanol]
≤ 50 nM | ≤ 50 nM |  | [2H]c1[nH]c2ncc(-c3cnn([C@H]4CC[C@H](O)CC4)c3C)cc2c1[C@H](C)c1c(OC(F)F)ccc(F)c1Cl [Example 94, trans-4-{-4-[3-{(1S)-1-[2-Chloro-6-(difluoromethoxy)-3-fluorophenyl]ethyl}(2-^2H)-1H-pyrrolo[2,3-b]pyridin-5-yl]-5-methyl-1H-pyrazol-1-yl}cyclohexanol]
> 1000 nM |  |  | Cc1c(-c2cnc3[nH]cc([C@@H](C)c4c(OC(F)F)ccc(F)c4Cl)c3c2)cnn1[C@H]1CC[C@H](O)CC1 [Example 98, trans-4-[4-(3-{(1R)-1-[2-Chloro-6-(difluoromethoxy)-3-fluorophenyl]ethyl}-1H-pyrrolo[2,3-b]pyridin-5-yl)-5-methyl-1H-pyrazol-1-yl]cyclohexanol]
